Measurements from US8063075B2, “Pyrrolidine ether derivatives as NK3 receptor antagonists” (Hoffmann-La Roche Inc., priority 2008, dated 2011).

molecular target: T1, recombinant human NK3 receptor (Homo sapiens, UniProt P29371); experiment: [3H]SR142801 competition binding assay; settings: membranes from HEK293 cells transiently expressing hNK3; [3H]SR142801 at its KD; 75 min RT; read-out: Data [μM] (affinity constant Ki, hNK3 receptor binding)
T1 construct: expressed in transfected cells; host or cells: HEK293 cells (transient expression), membranes
T1 sequence (P29371 1-465): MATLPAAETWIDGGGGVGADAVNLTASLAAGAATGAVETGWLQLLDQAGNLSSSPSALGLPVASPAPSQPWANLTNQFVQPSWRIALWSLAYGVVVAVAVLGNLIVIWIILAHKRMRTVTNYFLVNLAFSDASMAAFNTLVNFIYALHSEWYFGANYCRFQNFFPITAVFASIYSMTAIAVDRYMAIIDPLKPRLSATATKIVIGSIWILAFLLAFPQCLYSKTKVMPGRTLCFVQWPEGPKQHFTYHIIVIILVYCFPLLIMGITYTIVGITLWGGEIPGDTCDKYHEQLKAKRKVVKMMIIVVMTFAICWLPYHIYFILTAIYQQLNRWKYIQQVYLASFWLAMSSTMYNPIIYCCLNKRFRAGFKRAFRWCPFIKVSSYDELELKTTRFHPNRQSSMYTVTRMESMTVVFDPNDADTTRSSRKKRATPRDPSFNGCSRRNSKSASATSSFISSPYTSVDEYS
Protocol: [^3H]SR142801 Competition Binding Assay
hNK3 receptor binding experiment were performed using [^3H]SR142801 (Catalog No. TRK1035, specific activity: 74.0 Ci/mmol, Amersham, GE Healthcare UK limited, Buckinghamshire, UK) and membrane isolated from HEK293 cells transiently expressing recombinant human NK3 receptor. After thawing, the membrane homogenates were centrifuged at 48,000×g for 10 min at 4° C., the pellets were resuspended in the 50 mM Tris-HCl, 4 mM MnCl2, 1 μM phosphoramidon, 0.1% BSA binding buffer at pH 7.4 to a final assay concentration of 5 μg protein/well. […] At the end of the incubation, membranes were filtered onto unitfilter (96-well white microplate with bonded GF/C filter preincubated 1 h in 0.3% PEI+0.3% BSA, Packard BioScience, Meriden, Conn.) with a Filtermate 196 harvester (Packard BioScience) and washed 4 times with ice-cold 50 mM Tris-HCl, pH 7.4 buffer. Nonspecific binding was measured in the presence of 10 μM SB222200 for both radioligands. The radioactivity on the filter was counted (5 min) on a Packard Top-count microplate scintillation counter with quenching correction after addition of 45 μl of microscint 40 (Can berra Packard S. A., Zürich, Switzerland) and shaking for 1 h. Inhibition curves were fitted according to the Hill equation: y=100/(1+(x/IC50)^nH), where nH=slope factor using Excel-fit 4 software (Microsoft). IC50 values were derived from the inhibition curve and the affinity constant (Ki) values were calculated using the Cheng-Prussoff equation Ki=IC50/(1+[L]/KD) where [L] is the concentration of radioligand and KD is its dissociation constant at the receptor, derived from the saturation isotherm. All experiments were performed in duplicate and the mean±standard error (SEM) of the individual Ki values was calculated.

| Compound | Ki |
| --- | --- |
| C[C@H](Oc1ccc(C#N)cn1)[C@H]1CN(C(=O)C2CCN(C(=O)C3(C)CC3)CC2)C[C@@H]1c1ccc(Cl)c(Cl)c1 (racemic) [Example 17, 6-((SR)-1-{(3RS,4SR)-4-(3,4-Dichloro-phenyl)-1-[1-(1-methyl-cyclopropanecarbonyl)-piperidine-4-carbonyl]-pyrrolidin-3-yl}-ethoxy)-nicotinonitrile] | 0.0046 µM |
| C[C@H](Oc1ccc(C#N)cn1)[C@H]1CN(C(=O)C2CCN(C(=O)C3(N)CC3)CC2)C[C@@H]1c1ccc(Cl)c(Cl)c1 (racemic) [Example 19, 6-{(SR)-1-[(3RS,4SR)-1-[1-(1-Amino-cyclopropanecarbonyl)-piperidine-4-carbonyl]-4-(3,4-dichloro-phenyl)-pyrrolidin-3-yl]-ethoxy}-nicotinonitrile] | 0.0077 µM |
| C[C@H](Oc1ccc(C#N)cn1)[C@H]1CN(C(=O)C2CCN(C(=O)C3CCC3)CC2)C[C@@H]1c1ccc(Cl)c(Cl)c1 (racemic) [Example 20, 6-{(SR)-1-[(3RS,4SR)-1-(1-Cyclobutanecarbonyl-piperidine-4-carbonyl)-4-(3,4-dichloro-phenyl)-pyrrolidin-3-yl]-ethoxy}-nicotinonitrile] | 0.0026 µM |
| C[C@H](Oc1ccc(C#N)cn1)[C@H]1CN(C(=O)C2CCN(C(=O)C3CC(=O)C3)CC2)C[C@@H]1c1ccc(Cl)c(Cl)c1 (racemic) [Example 21, 6-((SR)-1-{(3RS,4SR)-4-(3,4-Dichloro-phenyl)-1-[1-(3-oxo-cyclobutanecarbonyl)-piperidine-4-carbonyl]-pyrrolidin-3-yl}-ethoxy)-nicotinonitrile] | 0.0021 µM |
| CCC(=O)N1CCC(C(=O)N2C[C@H]([C@H](C)Oc3ccc(C#N)cn3)[C@@H](c3ccc(Cl)c(Cl)c3)C2)CC1 (racemic) [Example 22, 6-{(SR)-1-[(3RS,4SR)-4-(3,4-Dichloro-phenyl)-1-(1-propionyl-piperidine-4-carbonyl)-pyrrolidin-3-yl]-ethoxy}-nicotinonitrile] | 0.0036 µM |
| C[C@H](Oc1ccc(C#N)cn1)[C@H]1CN(C(=O)C2CCN(C(=O)CC#N)CC2)C[C@@H]1c1ccc(Cl)c(Cl)c1 (racemic) [Example 23, 6-{(SR)-1-[(3RS,4SR)-1-[1-(2-Cyano-acetyl)-piperidine-4-carbonyl]-4-(3,4-dichloro-phenyl)-pyrrolidin-3-yl]-ethoxy}-nicotinonitrile] | 0.0075 µM |
| COCC(=O)N1CCC(C(=O)N2C[C@H]([C@H](C)Oc3ccc(C#N)cn3)[C@@H](c3ccc(Cl)c(Cl)c3)C2)CC1 (racemic) [Example 24, 6-((SR)-1-{(3RS,4SR)-4-(3,4-Dichloro-phenyl)-1-[1-(2-methoxy-acetyl)-piperidine-4-carbonyl]-pyrrolidin-3-yl}-ethoxy)-nicotinonitrile] | 0.0036 µM |
| C[C@H](Oc1ccc(C#N)cn1)[C@H]1CN(C(=O)[C@H]2CC[C@H](N(C)C(=O)OC(C)(C)C)CC2)C[C@@H]1c1ccc(Cl)c(Cl)c1 (racemic) [Example 42, {4-[(3RS,4SR)-3-[(SR)-1-(5-Cyano-pyridin-2-yloxy)-ethyl]-4-(3,4-dichloro-phenyl)-pyrrolidine-1-carbonyl]-cyclohexyl}-methyl-carbamic acid tert-butyl ester] | 0.0028 µM |
| C[C@H](Oc1ccc(C#N)cn1)[C@H]1CN(C(=O)[C@H]2CC[C@H](NC(=O)OC(C)(C)C)CC2)C[C@@H]1c1ccc(Cl)c(Cl)c1 (racemic) [Example 43, {4-[(3RS,4SR)-3-[(SR)-1-(5-Cyano-pyridin-2-yloxy)-ethyl]-4-(3,4-dichloro-phenyl)-pyrrolidine-1-carbonyl]-cyclohexyl}-carbamic acid tert-butyl ester] | 0.007 µM |
| CC(=O)N(C)[C@H]1CC[C@H](C(=O)N2C[C@H]([C@H](C)Oc3ccc(C#N)cn3)[C@@H](c3ccc(Cl)c(Cl)c3)C2)CC1 (racemic) [Example 45, N-{4-[(3RS,4SR)-3-[(SR)-1-(5-Cyano-pyridin-2-yloxy)-ethyl]-4-(3,4-dichloro-phenyl)-pyrrolidine-1-carbonyl]-cyclohexyl}-N-methyl-acetamide] | 0.004 µM |
| CC(=O)N1CCC(C(=O)N2C[C@H]([C@H](C)Oc3ccc(C(F)(F)F)cn3)[C@@H](c3ccc(Cl)c(Cl)c3)C2)CC1 (racemic) [Example 46, 1-(4-{(3SR,4RS)-3-(3,4-Dichloro-phenyl)-4-[(SR)-1-(5-trifluoromethyl-pyridin-2-yloxy)-ethyl]-pyrrolidine-1-carbonyl}-piperidin-1-yl)-ethanone] | 0.0018 µM |
| C[C@H](Oc1ccc(C#N)cn1)[C@H]1CN(C(=O)C2CCN(C(=O)C3(C)CC3)CC2)C[C@@H]1c1ccc(Cl)c(Cl)c1 (racemic) [Example 47, 6-((SR)-1-{(3RS,4SR)-4-(3,4-Dichloro-phenyl)-1-[1-(1-methyl-cyclopropanecarbonyl)-piperidine-4-carbonyl]-pyrrolidin-3-yl}-ethoxy)-nicotinonitrile] | 0.0019 µM |
| C[C@H](Oc1ccc(Cl)cn1)[C@H]1CN(C(=O)C2CCN(C(=O)C3(C)CC3)CC2)C[C@@H]1c1ccc(F)cc1F (racemic) [Example 48, [(3RS,4SR)-3-[(SR)-1-(5-Chloro-pyridin-2-yloxy)-ethyl]-4-(2,4-difluoro-phenyl)-pyrrolidin-1-yl]-[1-(1-methyl-cyclopropanecarbonyl)-piperidin-4-yl]-methanone] | 0.0074 µM |
| C[C@H](Oc1ccc(Cl)cn1)[C@H]1CN(C(=O)C2CCN(C(=O)C3(C)CC3)CC2)C[C@@H]1c1ccc(Cl)cc1 [Example 52, {(3S,4R)-3-(4-Chloro-phenyl)-4-[(S)-1-(5-chloro-pyridin-2-yloxy)-ethyl]-pyrrolidin-1-yl}-[1-(1-methyl-cyclopropanecarbonyl)-piperidin-4-yl]-methanone] | 0.001 µM |
| C[C@H](Oc1ccc(Cl)cn1)[C@H]1CN(C(=O)C2CCN(C(=O)C3(C)CC3)CC2)C[C@@H]1c1ccc(Cl)c(F)c1 [Example 53, {(3S,4R)-3-(4-Chloro-3-fluoro-phenyl)-4-[(S)-1-(5-chloro-pyridin-2-yloxy)-ethyl]-pyrrolidin-1-yl}-[1-(1-methyl-cyclopropanecarbonyl)-piperidin-4-yl]-methanone] | 0.0008 µM |

system: not given; experiment: not given; settings: phase II trial; altered behaviour, delusion, hallucinations, extreme emotions, excited motor activity, incoherent speech; cited from earlier work

| Compound | activity on positive symptoms of schizophrenia |
| --- | --- |
| CC(=O)N(C)C1(c2ccccc2)CCN(CCC[C@]2(c3ccc(Cl)c(Cl)c3)CCCN(C(=O)c3ccccc3)C2)CC1 [SR 142,801, Osanetant] | active |

same assay, conditions: phase II trial; depression, anhedonia, social isolation or memory and attention deficits; cited from earlier work

| Compound | activity in the treatment of negative symptoms |
| --- | --- |
| CC(=O)N(C)C1(c2ccccc2)CCN(CCC[C@]2(c3ccc(Cl)c(Cl)c3)CCCN(C(=O)c3ccccc3)C2)CC1 [SR 142,801, Osanetant] | inactive |
